Source: patent US12344610B2, “APOL1 inhibitors and methods of use” (Maze Therapeutics, Inc., priority 2022, dated 2025)

Assays:
Assay type in all cases: cell-based
[1] = molecular target: T1, APOL1 G2 (Homo sapiens, UniProt O14791, DEL388-389); test: APOL1-mediated calcium transport (calcium influx) assay, HEK T-REx/GCaMP6f/APOL1 G2 K6.3 cells, FLIPR TETRA; conditions: prevention of calcium influx; geometric mean of at least 2 assay runs; † = average of a technical replicate from a single assay run
T1 construct: expressed in transfected cells; host or cells: HEK293 T-REx clonal line stably expressing GCaMP6f (HEK T-REx/GCaMP6f/APOL1 G2 K6.3), doxycycline induced
T1 sequence (O14791 with tags, fused parts or gaps DEL388-389): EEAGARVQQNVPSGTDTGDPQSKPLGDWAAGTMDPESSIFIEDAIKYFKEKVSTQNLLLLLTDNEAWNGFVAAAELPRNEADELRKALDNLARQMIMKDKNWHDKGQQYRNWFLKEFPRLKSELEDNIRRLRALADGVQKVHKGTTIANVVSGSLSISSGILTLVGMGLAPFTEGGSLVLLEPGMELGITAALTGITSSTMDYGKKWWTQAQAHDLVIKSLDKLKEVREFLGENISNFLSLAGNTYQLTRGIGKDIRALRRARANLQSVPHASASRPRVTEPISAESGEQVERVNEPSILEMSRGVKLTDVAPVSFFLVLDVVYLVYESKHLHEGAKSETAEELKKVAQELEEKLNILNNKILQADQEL
Description: A HEK293 clonal cell line was generated to stably express GCaMP6f, a genetically encoded calcium indicator, and inducibly express APOL1 G2 (HEK T-REx/GCaMP6f/APOL1 G2 K6.3). Cells were maintained in the following standard complete medium: DMEM with 4.5 g/L glucose and sodium pyruvate (BioWhittaker, Lonza, BE12-614F), supplemented with 10% FBS Performance Plus (Gibco, 16000044), 1% penicillin-streptomycin (BioWhittaker, DE17-602E), 2 mM ultraglutamine-1 (BioWhittaker cat. BE 17-605/U1), 50 μg/mL Zeocin (InvivoGen, ant-zn), 2.5 μg/mL Blasticidin (InvivoGen, ant-bl-5), and 25 μg/mL Hygromycin (InvivoGen, ant-hg). Standard propagation conditions consisted of plating 9×10^6, 4×10^6, 2×10^6 cells in a T225 flasks to be processed after 2, 3, or 4 days, respectively.
A source plate was generated containing 20 serially diluted compounds in DMSO (duplicate 8-point dose response). Next, 0.8 μL of compounds were transferred from the source plate to a destination plate prefilled with 79.2 μL of Ca^2+ free Tyrode's buffer (130 mM NaCl, 5 mM KCl, 1 mM MgCl2, 5 mM NaHCO3, 20 mM HEPES at pH 7.4). The destination plate was placed on a plate shaker (5 seconds at 2000 rpm) to mix. […] All transfer and mixing steps were conducted with an CyBi®-Well dispenser.
Cells were split by gently washing with DPBS (Euroclone, ECB4004L), followed by a 5-minute incubation (humidified, 37° C. with 5% CO2) with trypsin-EDTA solution (Euroclone, ECB3052D). Detached cells were diluted with standard complete medium without selective agents, counted, and plated in a 384 MTP microplate (GR4332CPL, Twin Helix) (10,000 cells/well in 25 μl/well) using a MATRIX WellMate dispenser. Plates were placed into a humidified incubator (37° C. with 5% CO2) overnight. The following day, 20 μL of doxycycline (Sigma, D9891) at 20 ng/mL in standard complete medium was added to cells with a CyBi® Drop dispenser to induce APOL1 G2 expression. After a 6-hour incubation (humidified, 37° C. with 5% CO2), cells were washed 3 times with Ca^2+ free Tyrode's Buffer (130 mM NaCl, 5 mM KCl, 1 mM MgCl2, 5 mM NaHCO3, 20 mM HEPES at pH 7.4) using a BIOTEK Microplate washer, such that 10 μL of buffer remained in each well after the final wash. Assay plates were then stored at room temperature for 10 minutes. Next, 10 μL of diluted compounds were transferred to the assay plate from the 2× compound plate using a CyBi®-Well dispenser. Compound incubation was then carried out at room temperature for 10 minutes. The assay plate was transferred to the FLIPR^TETRA and 20 μL of 10 mM Ca^2+ (final concentration=5 mM) Tyrode's buffer was injected.
Unless otherwise specified, AC50 and values are reported as the geometric mean of at least 2 assay runs on separate days. Each run represents the average of a technical replicate, where each compound was assayed twice in the same plate. A superscript t symbol indicates a value from the average of a technical replicate from a single assay run, where each compound was assayed twice in the same plate.
The AC50 values in Table 39 below reflect the compound's ability to prevent calcium influx by inhibiting APOL1. […] Compounds in Table 39 are referred to by the corresponding Compound Number in Table 1, which is also referred to in the synthetic examples. When one or more of the numbered compounds are identified by stereochemistry (for example, (R)- or (S)-), the specific stereoisomer for which data is provided in Table 39 may be identified by the elution order of such compound as described in the synthetic examples. For example, Compounds 39 and 40 are associated with Step 5 of Example 13, where Compound 39 is the first eluting enantiomer, and Compound 40 is the second eluting enantiomer in the chiral separation of Compound 38. For Table 39 below, n/a represents “not available”.

[2] = system: HEK293 cells overexpressing APOL1 G2; test: APOL1 G2 HEK293 cell rescue assay (reversal of cell death caused by overexpression of APOL1); conditions: geometric mean of at least 2 assay runs, † = single assay run
Description: Unless otherwise specified, EC50 values are reported as the geometric mean of at least 2 assay runs on separate days. Each run represents the average of a technical replicate, where each compound was assayed twice in the same plate. A superscript t symbol indicates a value from the average of a technical replicate from a single assay run, where each compound was assayed twice in the same plate. Compounds in Table 40 are referred to by the corresponding Compound Number in Table 1, which is also referred to in the synthetic examples. When one or more of the numbered compounds are identified by stereochemistry (for example, (R)- or (S)-), the specific stereoisomer for which data is provided in Table 40 may be identified by the elution order of such compound as described in the synthetic examples. Absolute stereochemistry of such compounds may be identified by methods known in the art. For Table 40 below, n/a represents “not available”.
Rescue EC50 values reported in Table 40 below represent the half-maximal effective concentration for reversal of cell death caused by overexpression of APOL1.

[3] = system: HEK293 clonal cell line overexpressing APOL1 G1; test: APOL1 G1 HEK293 cell rescue assay (Example B3); conditions: geometric mean of at least 2 runs, † = single run, ¥ = concentration at 50% rescue estimated (no sigmoidal curve)
Description: Compounds were also assayed in a HEK293 clonal cell line overexpressing APOL1 G1 by a method similar to that shown in Example B2 above.
Unless otherwise specified, EC50 values are reported as the geometric mean of at least 2 assay runs on separate days. Each run represents the average of a technical replicate, where each compound was assayed twice in the same plate. A superscript † symbol indicates a value from the average of a technical replicate from a single assay run, where each compound was assayed twice in the same plate. A ¥ symbol represents compound concentration at 50% rescue estimated due to lack of sigmoidal curve preventing curve fitting. Compounds in Table 41 are referred to by the corresponding Compound Number in Table 1, which is also referred to in the synthetic examples. When one or more of the numbered compounds are identified by stereochemistry (for example, (R)- or (S)-), the specific stereoisomer for which data is provided in Table 41 may be identified by the elution order of such compound as described in the synthetic examples. Absolute stereochemistry of such compounds may be identified by methods known in the art. For Table 41 below, n/a represents “not available”.
Rescue EC50 values reported in Table 41 below represent the half-maximal effective concentration for reversal of cell death caused by overexpression of APOL1.

[4] = Homo sapiens, HEK293, HEK293 overexpressing APOL1 G2
[5] = Homo sapiens, HEK293, HEK293 clonal line overexpressing APOL1 G1
[6] = HEK293 clonal line overexpressing APOL1 G1

| Structure (SMILES) | AC50 [1] [nM] | EC50 [2, 4] [nM] | EC50 [3, 5] [nM] | EC50 ([2]; HEK293 overexpressing APOL1 G2) [nM] | EC50 [3, 6] [nM] |
| --- | --- | --- | --- | --- | --- |
| CC(COc1ccc(S(C)(=O)=O)cc1)N1CCC2(CC1)C(=O)N(C1CC(O)C1)c1ccc(Cl)cc12 (mixture of isomers) [Compound 205, 5-chloro-1′-[1-(4-methanesulfonylphenoxy)propan-2-yl]-1-[3-hydroxycyclobutyl]-1,2-dihydrospiro[indole-3,4′-piperidin]-2-one] | 1220 | 472 | 1760 | – | – |
| C[C@@H](CN1CCC2(CC1)C(=O)Nc1ccc(Cl)cc12)Oc1ccc(S(C)(=O)=O)cc1 (single isomer, unassigned) [Compound 11] | 1050 | 1700 | 2300 | – | – |
| CC(c1ccc(OCCN2CCC3(CC2)C(=O)Nc2ccc(Cl)cc23)cc1)S(C)(=O)=O (single isomer, unassigned) [Compound 40, 5-chloro-1′-(2-{4-[(1R) or (1S)-1-methanesulfonylethyl]phenoxy}ethyl)-1,2-dihydrospiro[indole-3,4′-piperidin]-2-one] | 657 | – | – | 72 | 294 |
| N#Cc1ccc2c(c1)C1(CCN(CCOc3ccc4c(c3)CCN3C(=O)NCC43)CC1)C(=O)N2 (single isomer, unassigned) [Compound 119, (S) or (R)-2-oxo-1′-[2-({3-oxo-1H,2H,3H,5H,6H,10bH-imidazo[4,3-a]isoquinolin-8-yl}oxy)ethyl]-1,2-dihydrospiro[indole-3,4′-piperidine]-5-carbonitrile] | 1010 | 435 | ~3400 | – | – |
| N#Cc1ccc2c(c1)C1(CCN(CCOc3ccc4c(c3)CCN3C(=O)CCC43)CC1)C(=O)N2 (single isomer, unassigned) [Compound 125, (S) or (R)-2-oxo-1′-[2-({3-oxo-1H,2H,3H,5H,6H,10bH-pyrrolo[2,1-a]isoquinolin-8-yl}oxy)ethyl]-1,2-dihydrospiro[indole-3,4′-piperidine]-5-carbonitrile] | 729 | 355 | – | – | > 4860 |
| N#Cc1ccc2c(c1)C1(CCN(CCOc3ccc4c(c3)CCN3C(=O)CCC43)CC1)C(=O)N2 (single isomer, unassigned) [Compound 126, (R) or (S)-2-oxo-1′-[2-({3-oxo-1H,2H,3H,5H,6H,10bH-pyrrolo[2,1-a]isoquinolin-8-yl}oxy)ethyl]-1,2-dihydrospiro[indole-3,4′-piperidine]-5-carbonitrile] | 624 | – | – | 273 | 1010 |
| CC(COc1ccc2c(c1)CCC(=O)N2C)N1CCC2(CC1)C(=O)Nc1ccc(Cl)cc12 (single isomer, unassigned) [Compound 201, chloro-1′-[(2R) or (2S)-1-[(1-methyl-2-oxo-1,2,3,4-tetrahydroquinolin-6-yl)oxy]propan-2-yl]-1,2-dihydrospiro[indole-3,4′-piperidin]-2-one] | 909 | – | – | 609 | 4920 |
| CC(COc1ccc2c(c1)CCC(=O)N2C)N1CCC2(CC1)C(=O)Nc1ccc(C#N)cc12 (single isomer, unassigned) [Compound 204, (R) or (S)-1′-{1-[(1-methyl-2-oxo-1,2,3,4-tetrahydroquinolin-6-yl)oxy]propan-2-yl}-2-oxo-1,2-dihydrospiro[indole-3,4′-piperidine]-5-carbonitrile] | 869 | – | – | 1550 | 1270 |
| C[C@]1(O)C[C@@H](n2c(=O)cc(C(F)(F)F)c3cc(OCCN4CCC5(CC4)C(=O)Nc4ccc(Cl)cc45)cnc32)C1 [Compound 341, 5-chloro-1′-[2-({7-oxo-8-[(cis)-3-hydroxy-3-methylcyclobutyl]-5-(trifluoromethyl)-7,8-dihydro-1,8-naphthyridin-3-yl}oxy)ethyl]-1,2-dihydrospiro[indole-3,4′-piperidin]-2-one] | 1060 | 41.5 | – | – | – |
| C[C@]1(O)C[C@@H](n2c(=O)cc(C(F)(F)F)c3cc(OCCN4CCC5(CC4)C(=O)Nc4ccc(C(F)F)cc45)cnc32)C1 [Compound 342, 5-(difluoromethyl)-1′-[2-({7-oxo-8-[(cis)-3-hydroxy-3-methylcyclobutyl]-5-(trifluoromethyl)-7,8-dihydro-1,8-naphthyridin-3-yl}oxy)ethyl]-1,2-dihydrospiro[indole-3,4′-piperidin]-2-one] | 780 | 90.2 | – | – | – |
| C[C@]1(O)C[C@@H](n2cnc3cc(OCCN4CCC5(CC4)C(=O)Nc4ccc(C#N)cc45)cc(F)c32)C1 [Compound 455, 1′-(2-((7-fluoro-1-((cis)-3-hydroxy-3-methylcyclobutyl)-1H-benzo[d]imidazol-5-yl)oxy)ethyl)-2-oxospiro[indoline-3,4′-piperidine]-5-carbonitrile] | 1250 | 75.3 | – | – | – |
